Test results taken from US5958770A, “Glycoalkaloids” (priority 1990, dated 1999).

Assays:
cancer = conditions: rats; cited from earlier work
tumour = conditions: cited from earlier work
ovarian cancer cells = experiment: Inhibition of tritiated thymidine uptake, ovarian cancer cells; conditions: read-out: LD50 (dose to inhibit 50% tritiated thymidine uptake); OvCa
Experimental: (§1) The inhibition of cell replication by steroid alkaloids is determined by the inhibition of the incorporation of ^3 H thymidine into DNA. Using this technique, it should be possible to monitor any preferential inhibition of uptake of ^3 H thymidine by cancer cells.
(§2) Cells were maintained as monolayers in RPM1-1640 tissue culture media (Grant Island Biological Co) buffered with N-2-hydroxy-ethylpiperazine-N-2-ethanesulphonic acid pH 7.5 and supplemented with 10% heat inactivated fetal calf serum (FCS): (i) a human ovarian cancer cell line (C180-135), (ii) HeLa cells, (iii) human fibroblasts, and (iv) as a cell suspension of lymphoblastoid cells (EBV transformed lymphocytes). Monolayers were trypsinized to form a cell suspension. […] Cell concentration was adjusted to 2×10^5 cells/ml, and 2×10^4 cells were added in replicates of 10 to the wells (1×10^5 /ml well) of HA microtitre plates (Millipore Corp., USA). The cells were preincubated at 37.5° C. for 7 hours prior to the addition of 50 μl of the cytotoxic drug followed by the addition of 50 μl 5 uCi/ml of ^3 H thymidine, in the same tissue culture media 21 hours later. Incubation was continued for a total of 24 hours, which includes the pre-incubation time.
(§3) Appropriate DMSO cytotoxicity studies were also conducted. Solasodine glycosides were supplied as a mixture (BEC), and as separate components, solamargine, solasonine, a mixture of di- and mono-glycosides and the aglycone solasodine. All cytotoxic drugs were further diluted with HIFCS/TCM before testing. 5×10^4 ovarian cancer cells (200 μl/chamber of a chamber of microscope slide (Lab Tek Miles Scientific) were used. Controls received 50 μl HIFCS/TCM and experimental chambers 50 μl of solasodine glycosides (BEC) 1.5-3.8 μM/L after 7 hrs preincubation, and incubated for a further 3 hrs. Similarly, the cells were treated with the aglycone solasodine 19.4-96.8 μM/L. The cells were fixed and examined by the Papanicolaou method.

HeLa cells = experiment: cells
Experimental: as §1, §2, §3

human fibroblasts = experiment: cells; conditions: FB; NSE = no significant effect
Experimental: as §1, §2, §3

[1] = tested on: lymphoblastoid cells (EBV transformed lymphocytes); experiment: cells
Experimental: as §1, §2, §3

[2] = tested on: ovarian cancer cells, HeLa cells, lymphoblastoid cells, fibroblasts; experiment: Cytotoxicity / inhibition of tritiated thymidine uptake, cell types taken together; conditions: normal versus cancer cells
Experimental: as §1, §2, §3

[3] = Inhibition of tritiated thymidine uptake, unstimulated lymphocytes; conditions: human, unstimulated lymphocytes
Experimental: (§4) This was cultured for 48 hours and pulsed with tritiated thymidine for a further 24 hours. In the inhibition studies, the cell concentration was 8×10^5 /ml.
(§5) All cells were harvested by vacuum filtration by washing in 250 μl of each of phosphate buffered saline, 5% trichloroacetic acid, 1.0M NaCl and 95% ethanol and subjected to β-scintillatian counting. Similarly, peripheral human blood lymphocytes were isolated and cultured 2×10^5 lymphocytes in CO2 1640TCM 10% HIFCS. Lymphocytes were stimulated with 20 μg/ml PHA, Con A or PWM, and cultured for 48 hrs followed by a 24 hr pulse. […] Cell concentrations were 8×10^4 /well total volume 250 μl. The dpm of the experimental replicates were expressed as a percentage of the mean value of the controls, and the mean value of the experimental replicates calculated.

[4] = Inhibition of tritiated thymidine uptake, PHA stimulated lymphocytes; conditions: human, pha stimulated lymphocytes
Experimental: as §4, §5

[5] = Inhibition of tritiated thymidine uptake, PWM stimulated lymphocytes; conditions: human, pwm stimulated lymphocytes
Experimental: as §4, §5

[6] = Inhibition of tritiated thymidine uptake, Con A stimulated lymphocytes; conditions: human, con a stimulated lymphocytes
Experimental: as §4, §5

In the case of “rhamnosyl [4→3] Solasodine [Solaplumbin]”, the “anticancer properties” value (cancer) is given as “anticancer properties in rats”.

For C[C@H]1CC[C@]2(NC1)O[C@H]1C[C@H]3[C@@H]4CC=C5C[C@@H](O[C@@H]6O[C@H](CO)[C@@H](O[C@@H]7O[C@@H](C)[C@H](O)[C@@H](O)[C@H]7O)[C@H](O)[C@H]6O[C@@H]6O[C@@H](C)[C@H](O)[C@@H](O)[C@H]6O)CC[C@]5(C)[C@H]4CC[C@]3(C)[C@H]1[C@@H]2C [B-solamarine], the “tumour inhibition” value (tumour) is given as “tumour inhibitor”.

With O=C(O)CCCc1ccc(N(CCCl)CCCl)cc1 [chlorambucil, reference compound] the IC50 (ovarian cancer cells) was 60 µM, the “TR50 (thymidine ratio relative to ovarian cancer cells)” value (HeLa cells; HeLa / OvCa) was 0.79 and the IC50 (HeLa cells; read-out: LD50 (dose to inhibit 50% tritiated thymidine uptake), HeLa) was 47.5 µM. For the same molecule, the “LD50 (dose to inhibit 50% tritiated thymidine uptake)” value (human fibroblasts) was “NSE”, the “TR50 (thymidine ratio relative to ovarian cancer cells)” value ([1]; LCL / OvCa) was 0.45 and the IC50 ([1]; read-out: LD50 (dose to inhibit 50% tritiated thymidine uptake), LCL) was 27 µM. For the same molecule, the “cytotoxicity to normal cells relative to cancer cells” value [2] was “equally or more cytotoxic to normal cells relative to cancer cells”, the CC50 [3] was 33 µM and the CC50 [4] was 24.6 µM. The CC50 [5] was 22 µM and the CC50 [6] was 33 µM.
